Publication PMC3877906, “Polypeptide Modulators of TRPV1 Produce Analgesia without Hyperthermia” (Marine Drugs, 2013)
“Also recorded” adds a separate entry of the source.

What was measured:
serine proteases = settings: ref [14],[16]; cited from earlier work
From the text: (§1) Polypeptide molecules typically have a greater specific activity at a particular receptor than do small molecule agonists, which makes them attractive for researchers and pharmaceutical companies. We have previously reported the isolation of a polypeptide modulator of TRPV1 from a homogenized extract of the sea anemone Heteractis crispa named APHC1 and its partial in vivo characterization. Two homological polypeptides (APHC2 and APHC3) were subsequently found in the same extract, but their biological activity has not yet been properly characterized. APHC1 and APHC3 are weak ...

[1] = test system: TRPV1-dependent normal and diabetic bladder smooth muscle contractility; settings: ref [17]; cited from earlier work
From the text: as §1

TRPV1 = type: cell-based, rat; settings: for effect on capsaicin-induced TRPV1 response: whole-cell patch clamp, HEK-293
Procedure: Figure 2 Effects of APHC3 on recombinant TRPV1 expressed in HEK-293 cells. (a) Resting current recorded from a TRPV1-positive cell held at −30 mV. […] Straight lines above the recording indicate application of APHC3 (Long line) and capsaicin (Short lines). The cells were stimulated and rinsed by rapid switching of the bath solution between the control solution and solutions containing the indicated compound. (b) Capsaicin responses in control and in the presence of the 300 nM APHC3 peptide. In each case, the control response was calculated as an average of two acid responses recorded just prior to peptide application. Averaged responses recorded in the presence of APHC3 were normalized to averaged control responses. Those are presented as the mean ± s.d. (n = 4). […] (c, d) Cell responses to the acidification of the bath solution from pH 7.4 to pH 5.5 in control and in the presence of the APHC3 applied at different concentrations as indicated. The experimental traces in (c) and in (d, upper trace) illustrate representative responses of EGFP/TRPV1-positive cells. The bottom trace in (d) represents responses of an EGFP/TRPV1-negative cell assayed simultaneously. (e) Acid responses recorded in the presence of APHC3 (90, 160 and 240 nM) normalized to a control response. The data are presented as the mean ± s.d. (n = 5–10). […] In each case, the control response was calculated as an average of the two acid responses recorded just prior to peptide application. The average of the two acid responses recorded after peptide application was calculated and normalized to the control response. Experimental traces in (c, d) were obtained from three different cells. The changes in bath solution pH (continuous lines) and APHC3 applications (thick straight lines) are shown above the fluorescence traces. Cells were stimulated and rinsed by a rapid replacement of the control bath solution with modified bath solution at pH 5.5 with or without APHC3.
HEK-293 cells were cultured in Dulbecco’s modified Eagle’s medium (DMEM) (Life Technologies, Grand Island, NY, USA) containing 10% (vol/vol) fetal bovine serum (Thermo Fisher Scientific, Palm Beach, FL, USA), glutamine (1%) and the antibiotic gentamicin (100 μg/mL) (Life Technologies, Grand Island, NY, USA). The pIRES2-EGFP plasmid harboring rat TRPV1 cDNA was transiently transfected into HEK-293 cells by replacing the growth medium in each well with a transfection mixture, containing 1.6 μg of DNA and 4 μL of Lipofectamine (Life Technologies, Grand Island, NY, USA) in 1 mL of serum-free DMEM. After incubating for 6 h, the transfection mixture was replaced with normal culture medium. Cells were assayed within 48–96 h after transfection.
Ion currents were recorded using an Axopatch 200A amplifier, with a DigiData 1322A interface, and pClamp8 software (Molecular Devices, Downingtown, PA, USA). External solutions were delivered by a gravity-driven perfusion system at a rate of 0.1 mL/s. Generally, the whole-cell patch clamp approach was used with recording pipettes containing (mM): 140 CsCl, 1 MgATP, 10 BAPTA, 10 HEPES-CsOH (pH 7.2). The basic bath solution included the following (mM): 140 NaCl, 5 KCl, 1 MgCl2, 1 CaCl2, 10 HEPES-NaOH (pH 7.4).

TRPV3 = TRPV3 activity, oocyte electrophysiology or agonist-induced fluorescence readout; type: cell-based; settings: concentrations of up to 2 μM; data not shown
p2X3 = p2X3 activity, oocyte electrophysiology or agonist-induced fluorescence readout; type: cell-based; settings: concentrations of up to 2 μM; data not shown
CD-1 mice [2] = assay: acetic acid-induced writhing (abdominal constriction test of visceral pain); type: in vivo, mouse
Procedure: TRPV1 can be activated by low pH stimuli and is therefore involved in pain caused by acidification, which can be measured in the pain behavior model of acetic acid-induced writhing. Intraperitoneal administration of acetic acid provokes a very stereotyped behavior in the mouse. The constriction response is considered the definitive measure of visceral pain intensity. Animals were pretreated with polypeptides 15 min before acetic acid injection.
(§2) All experiments were performed in accordance with the recommendations in the “Principles of Laboratory Animal Care” and after approval by the Animal Care and Use Committee of the Branch of the IBCh RAS (Pushchino, Russia). Adult male CD-1 mice (Animal Breeding Facility Branch of Shemyakin-Ovchinnikov Institute of Bioorganic Chemistry, Russian Academy of Sciences, Pushchino, Russia) weighing 20–25 g were used. Animals were allowed to acclimate in the laboratory for at least five days. Mice were housed at room temperature (23 ± 2 °C) on a 12 h light–dark cycle with food and water available ad libitum. Polypeptides or vehicle was administered intravenously 15 min before testing.
(§3) The significance of the data was determined by analysis of variance (ANOVA) followed by Tukey’s test. Data are presented as mean ± S.E.
Separate groups of mice were injected with 0.6% acetic acid in saline (10 mL∙kg^−1 intraperitoneally (i.p.)). Mice were immediately placed inside transparent glass cylinders, and the number of writhes was recorded for 15 min.

CD-1 mice [3] = assay: capsaicin-induced acute pain test; type: in vivo, mouse; settings: n = 9; for pain-related behavior after capsaicin, reduction: 0.1 mg/kg i.v. 15 min before intraplantar capsaicin (3 µg/10 µL), "~44% of response"; for pain-related behavior after capsaicin, in words: 0.1 mg/kg i.v., vs saline
From the text: Because capsaicin is a selective agonist of the TRPV1 receptor, we tested the efficacy of APHC1 and APHC3 as TRPV1 receptor antagonists using the capsaicin-induced pain model. Intraplantar injection of capsaicin evokes pain-related behavior such as licking and shaking the injected paw. TRPV1 knockout mice are insensitive to the capsaicin test and most antagonists that block capsaicin-induced currents in vitro also block capsaicin induced pain-related behavior in mice.
as §2, §3
Intraplantar injection of capsaicin (3 µg/10 µL in 10% ethanol/90% saline) was used to elicit capsaicin-induced acute pain [36]. Immediately after the capsaicin injection, mice were placed inside glass cylinders for observation. Intraplantar injection of capsaicin evoked licking and shaking of the injected paw in mice. The duration of episodes of licking and paw shaking were recorded.

[4] = 0.1 mg/kg i.v., n = 9, vs saline

| Substance | inhibition of serine proteases (serine proteases) | modulation of TRPV1-dependent normal and diabetic bladder smooth muscle contractility [1] | effect on capsaicin-induced TRPV1 response (TRPV1; 100 nM capsaicin) | agonistic/antagonistic activity at TRPV3 (TRPV3) | agonistic/antagonistic activity at p2X3 (p2X3) | number of writhes, in words (CD-1 mice [2]; [4]) | number of writhes, in words (CD-1 mice [2]; 0.5 mg/kg i.v.) | pain-related behavior after capsaicin, reduction (CD-1 mice [3]) | pain-related behavior after capsaicin, in words (CD-1 mice [3]) | inhibition of TRPV1 currents (TRPV1; 100 nM capsaicin, 300 nM APHC3, whole-cell, held at −30 mV, pH 7.4 bath, four experiments (n = 4)) | inhibitory effect on capsaicin-induced currents (TRPV1; concentrations more than 300 nM) | inhibition of number of writhes (CD-1 mice [2]; 0.1 and 0.5 mg/kg i.v. 15 min before 0.6% acetic acid i.p., n = 9) |
| --- | --- | --- | --- | --- | --- | --- | --- | --- | --- | --- | --- | --- |
| APHC1: polypeptide modulator of TRPV1 from sea anemone Heteractis crispa; homologous to BPTI/Kunitz type serine-protease inhibitors; produced recombinantly in E. coli (GSICLEPKVVGPCTAYFRRFYFDSETGKCTVFIYGGCEGNGNNFETLRACRAICRA; left off: TRX, end not stated, cleaved) | weak inhibitors | modulate | partially blocked the capsaicin-induced response | neither agonistic nor antagonistic activity | neither agonistic nor antagonistic activity | did not produce a statistically significant effect; also recorded: did not significantly inhibit the response to acetic acid | significantly reduced number of writhes | ~ 44% | significantly reduced the behavioral response to capsaicin; also recorded: significantly reduced pain-related behavior |  |  |  |
| APHC3: polypeptide from Heteractis crispa highly homologous to APHC1, differing in four of 56 amino acids; produced recombinantly in E. coli (GSICLEPKVVGPCTAYFPRFYFNSETGKCTPFIYGGCEGNGNNFETLRACRGICRA; left off: TRX, end not stated, cleaved) | weak inhibitors | modulate | partially blocked the capsaicin-induced response | neither agonistic nor antagonistic activity | neither agonistic nor antagonistic activity | significantly reduced the number of writhes |  | ~ 44% | significantly reduced the behavioral response to capsaicin; also recorded: significantly reduced pain-related behavior | ~25% | 25% | 50% |
